Among the data in patent publication US9434725B2, “5-azaindazole compounds and methods of use” (priority 2012, dated 2016) are Ki values, retold here.

Structures are written as SMILES. Structures can show the parent of a compound that is named as a salt.

The Ki is the equilibrium dissociation constant of an inhibitor or competing ligand from its target.

Holding throughout (type): biochemical
In assay [1] the target is PIM1 (Homo sapiens (Human), UniProt P11309). The assay is described as follows: biochemical. The following applies: 10 μM ATP, 90 min, room temperature; read-out: PIM1 LC3K (KI). In a few lines:
(§1)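 Read-out is microfluidic electrophoretic separation of phosphorylated from unphosphorylated fluorescent Pim peptide, with Ki calculated from conversion. Reactions ran 90 min at room temperature in HEPES pH 7.2 containing MgCl2, Tween 20 and DTT, ended by EDTA-containing buffer.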

In assay [2] the target is PIM2 (Homo sapiens (Human), UniProt Q9P1W9). The assay is described as follows: Pim kinase binding activity, Caliper LC3000 microfluidic peptide phosphorylation assay, PIM2. The following applies: 10 μM ATP, 90 min, room temperature; read-out: PIM2 LC3K (KI). In a few lines: as §1
Sequence of PIM2 (Q9P1W9 whole entry): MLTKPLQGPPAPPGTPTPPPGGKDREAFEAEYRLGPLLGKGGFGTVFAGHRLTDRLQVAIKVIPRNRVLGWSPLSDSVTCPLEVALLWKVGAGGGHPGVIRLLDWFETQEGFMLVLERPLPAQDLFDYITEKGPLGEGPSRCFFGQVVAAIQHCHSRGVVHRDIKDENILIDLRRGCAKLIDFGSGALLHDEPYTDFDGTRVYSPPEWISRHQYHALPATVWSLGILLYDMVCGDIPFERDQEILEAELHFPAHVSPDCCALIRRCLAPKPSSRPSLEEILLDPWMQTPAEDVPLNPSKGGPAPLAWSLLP
For assay [3], the target named is PIM3 (Homo sapiens (Human), UniProt Q86V86). The assay is described as follows: Pim kinase binding activity, Caliper LC3000 microfluidic peptide phosphorylation assay, PIM3. The settings on record: 10 μM ATP, 90 min, room temperature; read-out: PIM3 LC3K (KI). The gist of the method: as §1

Sequence of PIM1 (P11309 whole entry): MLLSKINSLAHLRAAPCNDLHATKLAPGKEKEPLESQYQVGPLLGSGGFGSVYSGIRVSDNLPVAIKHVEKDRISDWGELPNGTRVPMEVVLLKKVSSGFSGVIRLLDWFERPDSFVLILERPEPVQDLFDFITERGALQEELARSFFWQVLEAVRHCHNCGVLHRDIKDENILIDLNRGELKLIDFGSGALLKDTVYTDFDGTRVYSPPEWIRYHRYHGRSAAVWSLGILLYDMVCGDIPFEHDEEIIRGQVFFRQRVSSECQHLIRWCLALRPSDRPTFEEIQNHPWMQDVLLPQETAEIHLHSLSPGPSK

For `COc1ccc(-n2ncc3cnc(-c4cnn(CC(F)(F)F)c4)cc32)nc1N1CCNC[C@@H](O)C1` [Compound 234, (R)-1-(3-Methoxy-6-(6-(1-(2,2,2-trifluoroethyl)-1H-pyrazol-4-yl)-1H-pyrazolo-[4,3-c]pyridin-1-yl)pyridin-2-yl)-1,4-diazepan-6-ol], the Ki was determined as 0.107 nM in assay [1], 2.25 nM in assay [2] and 0.236 nM in assay [3].
Take `CCn1cc(-c2cc3c(cn2)cnn3-c2cccc(N3CCN[C@@H](C)C3)n2)cn1` [Compound 126, (S)-6-(1-ethyl-1H-pyrazol-4-yl)-1-(6-(3-methylpiperazin-1-yl)pyridin-2-yl)-1H-pyrazolo[4,3-c]pyridine]: the inhibition constant (Ki) in assay [1] worked out at 0.349 nM; in assay [2], 7.36 nM; in assay [3], 0.349 nM.
Regarding `COc1ncc(-n2ncc3cnc(-c4cncc(C)n4)cc32)nc1N1CCC[C@H](N)C1` [Compound 222, (3S)-1-[3-methoxy-6-[6-(6-methylpyrazin-2-yl)pyrazolo[4,3-c]pyridin-1-yl]pyrazin-2-yl]piperidin-3-amine], the Ki in assay [1] came out at 0.125 nM; in assay [2] it was 0.979 nM; in assay [3], 0.073 nM.
The like results for `C[C@]1(O)CNCCN(c2cccc(-n3ncc4cnc(-c5cnn(CC(F)(F)F)c5)cc43)n2)C1` [Compound 248, (S)-6-Methyl-1-(6-(6-(1-(2,2,2-trifluoroethyl)-1H-pyrazol-4-yl)-1H-pyrazolo[4,3-c]-pyridin-1-yl)pyridin-2-yl)-1,4-diazepan-6-ol] were, in that order, 1.64 nM, 22.1 nM and 3.36 nM.
On the same counts, the results for `Cc1cncc(-c2cc3c(cn2)cnn3-c2cnc(Cl)c(N3CCC[C@H](N)C3)n2)n1` [Compound 226, (3S)-1-[3-chloro-6-[6-(6-methylpyrazin-2-yl)pyrazolo[4,3-c]pyridin-1-yl]pyrazin-2-yl]piperidin-3-amine] are 1.65 nM, 10.4 nM and 0.89 nM.
The like results for `CCn1cc(-c2cc3c(cn2)cnn3-c2cccc(N3CCC(O)CC3)n2)cn1` [Compound 129, 1-(6-(6-(1-ethyl-1H-pyrazol-4-yl)-1H-pyrazolo[4,3-c]pyridin-1-yl)pyridin-2-yl)piperidin-4-ol] were, in that order, 3.47 nM, 28.3 nM and 2.46 nM.
Consider `Cc1cncc(-c2cc3c(cn2)cnn3-c2cccc(N3CCC4(CCNC4)CC3)n2)n1` [Compound 200, 8-[6-[6-(6-methylpyrazin-2-yl)pyrazolo[4,3-c]pyridin-1-yl]-2-pyridyl]-2 8-diazaspiro[4.5]decane], for which the Ki in assay [1] was determined as 1.21 nM; in assay [2], 17 nM; in assay [3] it was 0.451 nM.
The like results for `Cn1cc(-c2cc3c(cn2)cnn3-c2cccc(N3CCNC[C@@H](O)C3)n2)cn1` [Compound 229, (R)-1-(6-(6-(1-Methyl-1H-pyrazol-4-yl)-1H-pyrazolo[4,3-c]pyridin-1-yl)pyridin-2-yl)-1,4-diazepan-6-ol] were, in that order, 0.316 nM, 9.39 nM and 0.131 nM.
The like results for `CCn1cc(-c2cc3c(cn2)cnn3-c2cccc(NC3CCCCNC3)n2)cn1` (stereo not drawn) [Compound 143, N-(6-(6-(1-ethyl-1H-pyrazol-4-yl)-1H-pyrazolo[4,3-c]pyridin-1-yl)pyridin-2-yl)azepan-3-amine] were, in that order, 2.46 nM, 31.1 nM and 1.62 nM.
On the same counts, the results for `Cn1cc(-c2cc3c(cn2)cnn3-c2cn(C)c(=O)c(N3CCC[C@H](N)C3)n2)cn1` [Compound 242, (S)-3-(3-Aminopiperidin-1-yl)-1-methyl-5-(6-(1-methyl-1H-pyrazol-4-yl)-1H-pyrazolo[4,3-c]pyridin-1-yl)pyrazin-2(1H)-one] are 128 nM, 1600 nM and 42.2 nM.
Turning to `C[C@H]1CN(c2cccc(-n3ncc4cnc(-c5cncc(C6COC6)c5)cc43)n2)CCN1` [Compound 113, (S)-1-(6-(3-methylpiperazin-1-yl)pyridin-2-yl)-6-(5-(oxetan-3-yl)pyridin-3-yl)-1H-pyrazolo[4,3-c]pyridine], the Ki in assay [1] worked out at 0.107 nM; in assay [2], 10.1 nM; in assay [3], 0.186 nM.
Turning to `Cc1cncc(-c2cc3c(cn2)cnn3-c2ccc(C)c(N3C[C@@H](N)CCC3=O)n2)n1` [Compound 221, (5S)-5-amino-1-[3-methyl-6-[6-(6-methylpyrazin-2-yl)pyrazolo[4,3-c]pyridin-1-yl]-2-pyridyl]piperidin-2-one], the inhibition constant Ki in assay [1] worked out at 26.2 nM; in assay [2], 744 nM; in assay [3], 23.2 nM.
For `Clc1cncc(-c2cc3c(cn2)cnn3-c2cccc(N3CCNCC3)n2)n1` [Compound 275, 6-(6-Chloropyrazin-2-yl)-1-(6-(piperazin-1-yl)pyridin-2-yl)-1H-pyrazolo[4,3-c]pyridine dihydrochloride], the inhibitory constant (Ki) in assay [1] is 0.725 nM; in assay [2] it was 5.74 nM; in assay [3] it was 0.267 nM.
On the same counts, the results for `Cc1cncc(-c2cc3c(cn2)cnn3-c2cccc(C3CNCCC3O)n2)n1` (stereo not drawn) [Compound 265, 3-[6-[6-(6-methylpyrazin-2-yl)pyrazolo[4,3-c]pyridin-1-yl]-2-pyridyl]piperidin-4-ol] are 0.941 nM, 8.79 nM and 0.206 nM.
The like results for `c1cc(N2CCCNCC2)nc(-n2ncc3cnc(-c4cnn(CC5COC5)c4)cc32)c1` [Compound 158, 1-(6-(1,4-Diazepan-1-yl)pyridin-2-yl)-6-(1-(oxetan-3-ylmethyl)-1H-pyrazol-4-yl)-1H-pyrazolo[4,3-c]pyridine] were, in that order, 287 nM, 2900 nM and 284 nM.
On the same counts, the results for `Cc1cncc(-c2cc3c(cn2)cnn3-c2cccc(C3=CCNCC3)n2)n1` [Compound 160, 6-(6-methylpyrazin-2-yl)-1-[6-(1 2 3 6-tetrahydropyridin-4-yl)-2-pyridyl]pyrazolo[4,3-c]pyridine] are 1.17 nM, 8.31 nM and 1.06 nM.
With `NC1CN(c2cccc(-n3ncc4cnc(-c5cnn(CC(F)(F)F)c5)cc43)n2)C1` [Compound 258, 1-(6-(6-(1-(2,2,2-Trifluoroethyl)-1H-pyrazol-4-yl)-1H-pyrazolo[4,3-c]pyridin-1-yl)pyridin-2-yl)azetidin-3-amine], the values for the inhibitory constant (Ki) in assay [1], in assay [2] and in assay [3] were 0.514 nM, 8.18 nM and 1.14 nM, respectively.
Turning to `Cn1ncc(-c2cc3c(cn2)cnn3-c2cccc(N3CCCNCC3)n2)cc1=O` [Compound 148, 5-(1-(6-(1,4-diazepan-1-yl)pyridin-2-yl)-1H-pyrazolo[4,3-c]pyridin-6-yl)-2-methylpyridazin-3(2H)-one], the figures for the Ki in assay [1], in assay [2] and in assay [3] were 128 nM, 4100 nM and 45.2 nM, respectively.
In the case of `OC1CNCCN(c2cccc(-n3ncc4cnc(-c5cncc(C6CC6)c5)cc43)n2)C1` (stereo not drawn) [Compound 115, 1-(6-(6-(5-cyclopropylpyridin-3-yl)-1H-pyrazolo[4,3-c]pyridin-1-yl)pyridin-2-yl)-1,4-diazepan-6-ol], the inhibition constant (Ki) in assay [1] turned out to be 0.155 nM; in assay [2] it was 14.9 nM; in assay [3] it was 0.306 nM.
